Results taken from patent US6770650B2, “Cyclic amine derivatives-CCR-3 receptor antagonists” (Syntex (U.S.A.) LLC, priority 1997, dated 2004).

How the values were obtained:
CCR-3 receptor = biological target: T1, CCR-3 receptor (Homo sapiens, UniProt P51677); experiment: CCR-3 Receptor Binding Assay, inhibition of 125I eotaxin binding to CCR-3 L1.2 transfectant cells; settings: concentration required to reduce 125I-eotaxin binding to the CCR-3 L1.2 transfected cells by 50%
T1 construct: expressed in transfected cells; host or cells: L1.2 cells (murine pre-B lymphoma line)
T1 sequence (P51677 1-355): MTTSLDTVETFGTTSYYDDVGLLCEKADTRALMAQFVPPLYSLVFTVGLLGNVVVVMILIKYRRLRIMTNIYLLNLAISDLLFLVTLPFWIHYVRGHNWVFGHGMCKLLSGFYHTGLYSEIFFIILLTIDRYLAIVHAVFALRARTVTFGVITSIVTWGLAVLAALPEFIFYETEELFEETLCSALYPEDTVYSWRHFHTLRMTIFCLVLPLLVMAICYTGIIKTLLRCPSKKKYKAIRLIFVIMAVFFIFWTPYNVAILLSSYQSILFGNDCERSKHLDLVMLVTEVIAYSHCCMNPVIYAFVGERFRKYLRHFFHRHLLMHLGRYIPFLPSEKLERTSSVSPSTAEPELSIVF
Experimental: The CCR-3 antagonistic activity of the compounds of the invention was determined by their ability to inhibit the binding of ^125I eotaxin to CCR-3 L1.2 transfectant cells ((see Ponath, P. D. et al., J. Exp. Med., Vol. 183, 2437-2448, (1996)).
The assay was performed in Costar 96-well polypropylene round bottom plates. Test compounds were dissolved in DMSO and then diluted with binding buffer (50 mM HEPES, 1 mM CaCl2, 5 mM MgCl2, 0.5% bovine serum albumin (BSA), 0.02% sodium azide, pH 7.24) such that the final DMSO concentration was 2%. 25 μl of the test solution or only buffer with DMSO (control samples) was added to each well, followed by the addition of 25 μl of ^125I-eotaxin ([…]) (NEX314, New England Nuclear, Boston, Mass.) and 1.5×10^5 of the CCR-3 L1.2 transfected cells in 25 μl binding buffer. The final reaction volume was 75 μl.
After incubating the reaction mixture for 1 h at room temperature, the reaction was terminated by filtering the reaction mixture through polyethylenimine treated Packard Unifilter GF/C filter plate (Packard, Chicago, Ill.). The filters were washed four times with ice cold wash buffer containing 10 mm HEPES and 0.5M sodium chloride (pH 7.2) and dried at 65° C. for approximately 10 min. 25 μl/well of Microscint-20™ scintillation fluid (Packard) was added and the radioactivity retained on the filters was determined by using the Packard TopCount™.
The IC50 value (concentration of test compound required to reduce ^125I-eotaxin binding to the CCR-3 L1.2 transfected cells by 50%) for some of the compounds of the invention was: […]

[1] = tested on: CCR-3 L1.2 transfectant cells; experiment: Inhibition of eotaxin mediated chemotaxis of CCR-3 L1.2 transfectant cells; type: cell-based; settings: concentration required to reduce eotaxin mediated chemotaxis of CCR-3 L1.2 transfected cells by 50%
Experimental: The CCR-3 antagonistic activity of the compounds of this invention was determined by measuring the inhibition of eotaxin mediated chemotaxis of the CCR-3 L1.2 transfectant cells, using a slight modification of the method described in Ponath, P. D. et al., J. Clin. Invest. 97: 604-612 (1996). The assay was performed in a 24-well chemotaxis plate (Costar Corp., Cambridge Mass.) CCR-3 L1.2 transfectant cells were grown in culture medium containing RPMI 1640, 10% Hyclone™ fetal calf serum, […] 2-mercaptoethanol and Geneticin 418 (0.8 mg/ml). 18-24 hours before the assay, the transfected cells were treated with n-butyric acid at a final concentration of 5 mM/1×10^6 cells/ml, isolated and resuspended at 1×10^7 cells/ml in assay medium containing equal parts of RPMI 1640 and Medium 199 (M 199) with 0.5% bovine serum albumin.
Human eotaxin suspended in phosphate buffered saline at 1 mg/ml was added to bottom chamber in a final concentration of 100 nm. Transwell culture inserts (Costar Corp., Cambridge Mass.) having 3 micron pore size were inserted into each well and L1.2 cells (1×10^6) were added to the top chamber in a final volume of 100 μl. Test compounds in DMSO were added both to the top and bottom chambers such that the final DMSO volume was 0.5%. The assay was performed against two sets of controls. The positive control contained cells with no test compound in the top chamber and only eotaxin in the lower chamber. The negative control contained cells with no test compound in the top chamber and neither eotaxin nor test compound in lower chamber. The plate was incubated at 37° C. After 4 h, the inserts were removed from the chambers and the cells that had migrated to the bottom chamber were counted by pipetting out 500 μl of the cell suspension from the lower chamber to 1.2 ml Cluster tubes (Costar) and counting them on a FACS for 30 sec.
The IC50 value (concentration of test compound required to reduce eotaxin mediated chemotaxis of CCR-3 L1.2 transfected cells by 50%) for some of the compounds of the invention was: […]

Compound | IC50 (CCR-3 receptor) | IC50 [1] | melting point
COc1cc(N)c(Cl)cc1C(=O)NCC1CCN(CC(NC(=O)c2ccc(C)cc2)C(C)C)CC1 (racemic) [compound 59, N-{1-(RS)-[4-(4-Amino-5-chloro-2-methoxyphenylcarbonylaminomethyl)piperidin-1-yl-methyl]-2-methylpropyl}-4-methylbenzamide] | 950 nM | 210 nM | –
Cc1ccc(C(=O)N[C@H](CN2CCC(Cc3ccc(Cl)c(Cl)c3)CC2)C(C)C)cc1 [compound 57, N-{1-(S)-[4-(3,4-Dichlorobenzyl)piperidin-1-ylmethyl]-2-methylpropyl}-4-methylbenzamide] | – | 240 nM | –
Cc1cc(C)c(NC(=O)N[C@@H](CN2CCN(Cc3ccc(Cl)c(Cl)c3)CC2)C(C)C)c(C)c1 [compound 93] | 3370 nM | 60 nM | 271.1 to 275.5 °C
COc1cccc(NC(=O)NC2CCCCC2N2CCN(Cc3ccc(Cl)c(Cl)c3)CC2)c1 (racemic) [compound 84, 1-{2(RS)-[4-(3,4-Dichlorobenzyl)piperazin-1-yl]cyclohexyl}-3-(3-methoxyphenyl)urea] | 690 nM | 460 nM | –
